Source: US20180325889A1, “IMMUNOREGULATORY AGENTS” (FLEXUS BIOSCIENCES, INC., priority 2014, published 2018)

Test system: not given
Assay: not given
Settings: not given

melting point [°C] | Compound
91 to 94 | O=C(NCC1(O)CCN(c2ccnc3ccc(F)cc23)CC1)c1ccc(Cl)cc1 [Example 81, 4-Chloro-N-((1-(6-fluoroquinolin-4-yl)-4-hydroxypiperidin-4-yl)methyl)benzamide]

Target: T1, human IDO1/HEK293 cells (Homo sapiens, UniProt P14902)
T1 construct: expressed in transfected cells
Assay: HEK Human IDO-1 cell-based IDO inhibition assay (kynurenine production)
Settings: HEK293 cells stably expressing human IDO1, 20 hours incubation, absorbance at 490 nm; read-out: HEK Human IDO-1 Bio Activity (IDO IC50)
In short: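 Stopped with 0.2% TCA, 50 °C 30 min; supernatant mixed with 0.2% Ehrlich reagent, 30 min RT, kynurenine read as absorbance at 490 nm.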

T1 sequence (P14902 whole entry): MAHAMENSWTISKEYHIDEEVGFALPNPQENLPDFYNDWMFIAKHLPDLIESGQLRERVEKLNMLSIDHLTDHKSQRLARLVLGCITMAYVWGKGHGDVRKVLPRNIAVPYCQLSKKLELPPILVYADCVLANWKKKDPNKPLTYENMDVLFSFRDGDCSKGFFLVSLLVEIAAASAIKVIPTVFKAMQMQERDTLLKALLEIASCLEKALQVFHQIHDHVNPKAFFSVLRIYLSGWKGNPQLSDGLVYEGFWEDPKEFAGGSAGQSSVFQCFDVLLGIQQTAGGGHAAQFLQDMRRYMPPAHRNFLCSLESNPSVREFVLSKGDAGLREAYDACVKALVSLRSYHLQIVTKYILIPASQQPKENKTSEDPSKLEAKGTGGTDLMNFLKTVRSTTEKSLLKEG

IC50 [nM] | Compound
< 2000 | O=C(NCC1(O)CCN(c2ccnc3ccc(F)cc23)CC1)c1ccc(Cl)cc1 [Example 81, 4-Chloro-N-((1-(6-fluoroquinolin-4-yl)-4-hydroxypiperidin-4-yl)methyl)benzamide]
< 50 | COc1ccc(-c2ccc(C(=O)N[C@H](C)[C@H]3CC[C@@H](c4ccnc5ccc(F)cc54)CC3)cc2)cn1 [Example 245, N-((R)-1-((1s,4S)-4-(6-fluoroquinolin-4-yl)cyclohexyl)ethyl)-4-(6-methoxypyridin-3-yl)benzamide]
< 2000 | O=C(Nc1ccc(Cl)cc1)[C@H]1CC[C@@H](c2ccnc3ccc(F)cc32)CC1 [Example 76, (cis)-N-(4-Chlorophenyl)-4-(6-fluoroquinolin-4-yl)cyclohexanecarboxamide]
< 2000 | CC[C@@H](NC(=O)c1ccc(Cl)cc1)[C@H]1CC[C@@H](c2cnc3ccccc3c2)CC1 (single isomer, unassigned) [Example 203a]
< 50 | CCC(NC(=O)c1ccc(OC)nc1)[C@H]1CC[C@@H](c2ccnc3ccc(C(F)(F)F)cc32)CC1 (stereo partly shown) [Example 256, 6-methoxy-N-(1-((1s, 4S)-4-(6-(trifluoromethyl)quinolin-4-yl)cyclohexyl)propyl)nicotinamide]
< 50 | C[C@@H](NC(=O)c1ccc(-c2cnco2)cc1)[C@H]1CC[C@@H](c2ccnc3ccc(F)cc32)CC1 [Example 250, N-((R)-1-((1s,4S)-4-(6-fluoroquinolin-4-yl)cyclohexyl)ethyl)-4-(oxazol-5-yl)benzamide]
< 250 | CC(NC(=O)c1ccc(Cl)cc1)C1CCC(c2ccc(C(F)(F)F)nc2)CC1 (single isomer, unassigned) [Example 220, 4-chloro-N-(1-(4-(6-(trifluoromethyl)pyridin-3-yl)cyclohexyl)ethyl)benzamide]
< 2000 | O=C(NCC1CCN(c2ccnc3ccc(F)cc23)CC1)c1cccc(Cl)c1 [Example 90]
< 2000 | CC(C(=O)N[C@H]1CC[C@H](c2ccnc3ccc(F)cc32)CC1)c1ccc(Cl)cc1 (stereo partly drawn) [Example 145, 2-(4-chlorophenyl)-N-(trans-4-(6-fluoroquinolin-4-yl)cyclohexyl)propanamide]
